# Test results: patent US11306101B2 (Celgene Corporation, priority 2019, dated 2022)
# Target: T1, CK1α (Homo sapiens, UniProt P48729+Q96SW2)
# T1 construct: expressed in transfected cells
# Test: CK1α ePL degradation assay in MDS-L cells
# Format: cell-based
# Settings: MDS-L cells expressing ePL-tagged CK1α; for DC50: concentration giving 50% CK1α degradation vs DMSO control; for Y: lowest measured CK1α level normalized to DMSO control
# Procedure: The following is an example of an assay that can be used to determine the CK1α degradation activity of Isoindolinone Carboxamide Compounds in a cell line, for example, the MDS-L cell line.
# Compounds were dispensed by an acoustic dispenser (ATS acoustic transfer system from EDC Biosystems) into a 384-well in a 10 point dose-response curve using 3-fold dilutions starting at 10 μM and going down to 0.0005 μM in DMSO. […] Assay plates were incubated at 37° C. with 5% CO2 for the indicated times. At the different time points, 25 μL of the InCELL Hunter™ Detection Reagent Working Solution (catalog number 96-0002, DiscoverX, Fremont, Calif.) was added to each well and incubated at RT for 30 min protected from light. After 30 min, luminescence was read on a PHERAstar luminometer (BMG LABTECH, Cary, N.C.).
# CK1α levels in compound-treated wells were normalized to that of DMSO control and expressed as percent of control (PoC) (y).
# The lowest measured CK1α level normalized to DMSO control in response to compound treatment, termed Y value, was used to characterize the compound-mediated CK1α degradation efficiency.
# T1 sequence (P48729 whole entry): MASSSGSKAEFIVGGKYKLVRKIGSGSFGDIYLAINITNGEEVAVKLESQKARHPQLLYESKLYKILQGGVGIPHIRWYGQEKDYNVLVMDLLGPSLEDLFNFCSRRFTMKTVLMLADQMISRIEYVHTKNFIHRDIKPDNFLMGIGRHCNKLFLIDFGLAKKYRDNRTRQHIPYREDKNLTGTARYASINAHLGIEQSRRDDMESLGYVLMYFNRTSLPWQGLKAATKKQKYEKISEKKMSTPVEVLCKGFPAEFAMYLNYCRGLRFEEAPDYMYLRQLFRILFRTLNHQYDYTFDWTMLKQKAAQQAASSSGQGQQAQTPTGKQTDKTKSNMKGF
# T1 sequence (Q96SW2 whole entry): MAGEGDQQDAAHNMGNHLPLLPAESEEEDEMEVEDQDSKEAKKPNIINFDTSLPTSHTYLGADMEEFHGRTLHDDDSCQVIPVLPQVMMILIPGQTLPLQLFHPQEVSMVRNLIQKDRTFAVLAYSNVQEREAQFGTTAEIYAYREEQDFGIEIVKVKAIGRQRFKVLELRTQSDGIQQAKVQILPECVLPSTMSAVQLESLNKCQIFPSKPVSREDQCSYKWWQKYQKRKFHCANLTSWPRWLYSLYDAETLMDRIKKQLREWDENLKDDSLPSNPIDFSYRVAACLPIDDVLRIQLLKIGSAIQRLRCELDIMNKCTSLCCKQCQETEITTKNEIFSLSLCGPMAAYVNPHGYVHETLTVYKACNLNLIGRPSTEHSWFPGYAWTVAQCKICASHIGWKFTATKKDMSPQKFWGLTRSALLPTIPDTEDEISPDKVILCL
# T1 sequence (Q16531 whole entry partner): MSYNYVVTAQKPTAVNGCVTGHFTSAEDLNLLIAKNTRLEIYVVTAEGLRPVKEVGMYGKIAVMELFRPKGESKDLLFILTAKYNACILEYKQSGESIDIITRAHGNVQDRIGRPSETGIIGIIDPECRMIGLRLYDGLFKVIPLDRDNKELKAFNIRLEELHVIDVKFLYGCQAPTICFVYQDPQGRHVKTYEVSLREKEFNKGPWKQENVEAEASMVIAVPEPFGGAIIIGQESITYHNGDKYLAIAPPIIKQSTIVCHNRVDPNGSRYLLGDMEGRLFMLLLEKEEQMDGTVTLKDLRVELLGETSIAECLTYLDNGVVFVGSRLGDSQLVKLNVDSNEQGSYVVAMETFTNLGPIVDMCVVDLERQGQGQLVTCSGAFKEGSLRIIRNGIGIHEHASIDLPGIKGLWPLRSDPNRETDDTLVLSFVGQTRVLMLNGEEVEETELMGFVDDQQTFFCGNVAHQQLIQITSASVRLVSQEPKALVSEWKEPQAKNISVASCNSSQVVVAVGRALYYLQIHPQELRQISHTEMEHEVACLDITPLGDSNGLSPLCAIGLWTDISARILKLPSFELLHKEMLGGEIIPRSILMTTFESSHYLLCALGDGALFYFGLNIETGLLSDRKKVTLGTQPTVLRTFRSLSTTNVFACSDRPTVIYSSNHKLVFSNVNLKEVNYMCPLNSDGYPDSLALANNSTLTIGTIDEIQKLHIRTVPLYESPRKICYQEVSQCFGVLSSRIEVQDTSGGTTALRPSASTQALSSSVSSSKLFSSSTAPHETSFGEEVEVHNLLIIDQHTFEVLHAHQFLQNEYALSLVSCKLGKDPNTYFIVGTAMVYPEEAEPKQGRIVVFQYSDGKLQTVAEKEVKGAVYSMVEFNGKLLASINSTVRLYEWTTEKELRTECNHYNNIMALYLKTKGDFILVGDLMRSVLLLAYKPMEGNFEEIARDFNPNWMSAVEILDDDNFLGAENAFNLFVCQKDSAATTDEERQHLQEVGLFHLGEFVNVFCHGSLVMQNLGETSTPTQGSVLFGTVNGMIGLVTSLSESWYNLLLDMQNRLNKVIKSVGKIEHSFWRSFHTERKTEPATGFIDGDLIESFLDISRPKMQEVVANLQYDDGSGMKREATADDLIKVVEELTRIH
Structure (SMILES),DC50,Y
"O=C1CCC(N2Cc3cc(C(=O)N[C@H](CC(F)(F)F)c4ccc(F)cc4)ccc3C2=O)C(=O)N1 (stereo partly drawn) [Example 191, 2-(2,6-dioxopiperidin-3-yl)-1-oxo-N-((R)-3,3,3-trifluoro-1-(4-fluorophenyl)propyl)isoindoline-5-carboxamide]",100 to 500 nM,** (a Y value (shown as**) of 20%<Y≤35%)
"O=C1CCC(N2Cc3cc(C(=O)N[C@H](C4CCN(CC(F)(F)F)CC4)C(F)(F)F)ccc3C2=O)C(=O)N1 (stereo partly drawn) [Example 143, 2-(2,6-dioxopiperidin-3-yl)-1-oxo-N-((R)-2,2,2-trifluoro-1-(1-(2,2,2-trifluoroethyl)piperidin-4-yl)ethyl)isoindoline-5-carboxamide]",100 to 500 nM,* (a Y value (shown as *) of 0<Y≤20%)
"CN1CCC([C@@H](NC(=O)c2ccc3c(c2)CN(C2CCC(=O)NC2=O)C3=O)C(F)(F)F)CC1 (stereo partly drawn) [Example 81, 2-(2,6-dioxopiperidin-3-yl)-1-oxo-N-((R)-2,2,2-trifluoro-1-(1-methylpiperidin-4-yl)ethyl)isoindoline-5-carboxamide]",500 to 1000 nM,** (a Y value (shown as**) of 20%<Y≤35%)
"C[C@H](NC(=O)c1cc2c(cc1F)C(=O)N(C1CCC(=O)NC1=O)C2)c1ccccc1 (stereo partly drawn) [Example 85, 2-(2,6-dioxopiperidin-3-yl)-6-fluoro-1-oxo-N-((S)-1-phenylethyl)isoindoline-5-carboxamide]",500 to 1000 nM,*** (a Y value (shown as***) of 35%<Y<50%)
"O=C1CC[C@H](N2Cc3cc(C(=O)N[C@H](c4ncc(Cl)cc4F)C(F)(F)F)ccc3C2=O)C(=O)N1 [Example 193, N-((R)-1-(5-chloro-3-fluoropyridin-2-yl)-2,2,2-trifluoroethyl)-2-((S)-2,6-dioxopiperidin-3-yl)-1-oxoisoindoline-5-carboxamide]",< 100 nM,* (a Y value (shown as *) of 0<Y≤20%)
"O=C1CCC(N2Cc3cc(C(=O)N[C@H](c4ccc(O)cc4)C(F)(F)F)ccc3C2=O)C(=O)N1 (stereo partly drawn) [Example 101, 2-(2,6-dioxopiperidin-3-yl)-1-oxo-N-((R)-2,2,2-trifluoro-1-(4-hydroxyphenyl)ethyl)isoindoline-5-carboxamide]",< 100 nM,* (a Y value (shown as *) of 0<Y≤20%)
C[C@H](NC(=O)c1ccc2c(c1)CN(C1CCC(=O)NC1=O)C2=O)C1CC1 (stereo partly shown) [Example 5],100 to 500 nM,** (a Y value (shown as**) of 20%<Y≤35%)

# Now from value to compound:
DC50,Y,Structure (SMILES)
< 100 nM,* (a Y value (shown as *) of 0<Y≤20%),"O=C1CCC(N2Cc3cc(C(=O)N[C@H](c4ccccc4OC(F)(F)F)C(F)(F)F)ccc3C2=O)C(=O)N1 (stereo partly drawn) [Example 44, 2-(2,6-dioxopiperidin-3-yl)-1-oxo-N-((R)-2,2,2-trifluoro-1-(2-(trifluoromethoxy)phenyl)ethyl)isoindoline-5-carboxamide]"
< 100 nM,* (a Y value (shown as *) of 0<Y≤20%),"O=C1CCC(N2Cc3cc(C(=O)N[C@H](c4ncc(F)cc4F)C(F)(F)F)ccc3C2=O)C(=O)N1 (stereo partly drawn) [Example 133, N-((R)-1-(3,5-difluoropyridin-2-yl)-2,2,2-trifluoroethyl)-2-(2,6-dioxopiperidin-3-yl)-1-oxoisoindoline-5-carboxamide]"
< 100 nM,* (a Y value (shown as *) of 0<Y≤20%),"O=C1CCC(N2Cc3cc(C(=O)N[C@@H](C(F)(F)F)C45CC(C4)C5)ccc3C2=O)C(=O)N1 (stereo partly drawn) [Example 57, N-((R)-1-(bicyclo[1.1.1]pentan-1-yl)-2,2,2-trifluoroethyl)-2-(2,6-dioxopiperidin-3-yl)-1-oxoisoindoline-5-carboxamide]"
< 100 nM,* (a Y value (shown as *) of 0<Y≤20%),"O=C1CCC(N2Cc3cc(C(=O)N[C@H](C4CCC5(CC4)CC5)C(F)(F)F)ccc3C2=O)C(=O)N1 (stereo partly drawn) [Example 166, 2-(2,6-dioxopiperidin-3-yl)-1-oxo-N-((1R)-2,2,2-trifluoro-1-(spiro[2.5]octan-6-yl)ethyl)isoindoline-5-carboxamide]"
